Results from patent publication US9988400B2 (Genentech, Inc., priority 2013, dated 2018).

Target: T1, HEK cells stably transfected with tetracycline inducible hNR1 and hNR2A (Homo sapiens, UniProt Q05586+Q12879)
T1 construct: expressed in transfected cells; host or cells: HEK cells, stably transfected, tetracycline/doxycycline inducible
Assay: Assay 1: Cell-Based Assay, cytosolic calcium response to positive allosteric modulators (with 30 μM glycine and 300 nM L-glutamate, EC30)
Details: for EC50: cytosolic calcium response, with 30 μM glycine and 300 nM L-glutamate (EC30), — = no plateau was reached; for Max %: responses scaled relative to 100 μM L-glutamate maximal response (100%) and 0 μM L-glutamate (0%)
Procedure, shortened: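 Cells induced 24 h with 7.5 μg mL^−1 doxycycline plus 500 μM (+)-ketamine, loaded 60 min at 37 °C with calcium dye in Mg-free HBSS (1.8 mM Ca, probenecid, 10 μM (+)-ketamine, pH 7.15). Peak RFU over 5 min after compound addition, scaled to 100 μM L-glutamate (100%) and 0 μM (0%); four-parameter Hill fit for EC50, max % if no plateau.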

T1 sequence (Q12879 23-1464, other chains not shown): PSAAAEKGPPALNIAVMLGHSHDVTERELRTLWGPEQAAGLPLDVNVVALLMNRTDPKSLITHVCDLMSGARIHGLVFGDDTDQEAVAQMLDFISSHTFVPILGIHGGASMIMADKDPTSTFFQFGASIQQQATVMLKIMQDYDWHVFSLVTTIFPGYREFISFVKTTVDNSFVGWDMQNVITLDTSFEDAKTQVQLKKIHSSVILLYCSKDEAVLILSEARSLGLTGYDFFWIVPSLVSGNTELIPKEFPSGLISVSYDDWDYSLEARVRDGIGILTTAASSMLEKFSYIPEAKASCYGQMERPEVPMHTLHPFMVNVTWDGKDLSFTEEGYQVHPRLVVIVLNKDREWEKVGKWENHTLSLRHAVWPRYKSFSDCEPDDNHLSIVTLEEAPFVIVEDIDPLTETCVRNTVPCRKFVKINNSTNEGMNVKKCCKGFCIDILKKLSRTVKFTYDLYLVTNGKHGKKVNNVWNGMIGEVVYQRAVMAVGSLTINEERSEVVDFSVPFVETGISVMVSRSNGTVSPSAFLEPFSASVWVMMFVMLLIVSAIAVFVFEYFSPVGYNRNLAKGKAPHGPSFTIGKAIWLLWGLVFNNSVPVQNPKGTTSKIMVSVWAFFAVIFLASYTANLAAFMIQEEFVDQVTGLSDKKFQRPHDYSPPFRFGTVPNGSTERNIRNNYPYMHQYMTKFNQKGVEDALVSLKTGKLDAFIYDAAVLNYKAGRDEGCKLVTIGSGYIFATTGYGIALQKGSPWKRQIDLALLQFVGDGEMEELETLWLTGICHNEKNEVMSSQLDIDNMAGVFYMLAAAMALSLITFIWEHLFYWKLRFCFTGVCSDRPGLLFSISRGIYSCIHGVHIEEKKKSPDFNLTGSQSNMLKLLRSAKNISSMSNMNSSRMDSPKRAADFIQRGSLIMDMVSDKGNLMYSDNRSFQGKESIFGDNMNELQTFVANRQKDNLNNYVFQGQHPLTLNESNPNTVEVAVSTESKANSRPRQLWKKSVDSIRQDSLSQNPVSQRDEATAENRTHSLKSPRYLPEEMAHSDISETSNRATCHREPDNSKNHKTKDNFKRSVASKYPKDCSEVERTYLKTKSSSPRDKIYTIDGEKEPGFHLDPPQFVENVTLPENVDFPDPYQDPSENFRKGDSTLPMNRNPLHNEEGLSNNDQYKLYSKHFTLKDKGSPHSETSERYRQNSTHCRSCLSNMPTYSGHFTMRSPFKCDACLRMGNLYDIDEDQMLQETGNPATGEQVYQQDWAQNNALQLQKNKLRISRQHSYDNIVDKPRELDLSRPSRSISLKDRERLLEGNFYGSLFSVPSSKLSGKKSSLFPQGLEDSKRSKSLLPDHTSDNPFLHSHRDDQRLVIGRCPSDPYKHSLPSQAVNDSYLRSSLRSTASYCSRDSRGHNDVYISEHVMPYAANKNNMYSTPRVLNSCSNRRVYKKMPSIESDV

SMILES | EC50 (Table 3) | EC50 (Table 2) | Max % (Table 2)
CNC(=O)c1c(C)sc2nc(Cc3cccc(C4CC4)c3F)c(F)c(=O)n12 [compound 6, 7-[(3-cyclopropyl-2-fluoro-phenyl)methyl]-6-fluoro-N,2-dimethyl-5-oxo-thiazolo[3,2-a]pyrimidine-3-carboxamide] | 0.753 µM |  | 
Cc1sc2nc(Cn3nc(C4CC4)cc3C3CC3)cc(=O)n2c1[C@@H]1C[C@H]1CO (relative stereo) [Example 15.17, 7[(3,5-dicyclopropylpyrazol-1-yl)methyl]-3-[trans-2-(hydroxymethyl)cyclopropyl]-2-methyl-thiazolo[3,2-a]pyrimidin-5-one] |  | 3.4 µM | 137%
Cc1sc2nc(Cn3nc(C(F)(F)F)cc3Cl)cc(=O)n2c1-c1nccs1 [compound 142, 7-[[5-chloro-3-(trifluoromethyl)pyrazol-1-yl]methyl]-2-methyl-3-thiazol-2-yl-thiazolo[3,2-a]pyrimidin-5-one] | 2.09 µM |  | 
CNC(=O)Cc1c(C(F)(F)F)sc2nc(Cn3nc(C(F)(F)F)cc3C3CC3)cc(=O)n12 [compound 78, 2-[7-[[5-cyclopropyl-3-(trifluoromethyl)pyrazol-1-yl]methyl]-5-oxo-2-(trifluoromethyl)thiazolo[3,2-a]pyrimidin-3-yl]-N-methyl-acetamide] | 2.96 µM |  | 
CNC(=O)c1c(C)sc2nc(Cn3nc(C4CC4)cc3C(F)(F)F)cc(=O)n12 [Example 16.2, 7-((3-cyclopropyl-5-(trifluoromethyl)-1H-pyrazol-1-yl)methyl)-N,2-dimethyl-5-oxo-5H-thiazolo[3,2-a]pyrimidine-3-carboxamide] |  | 11.7 µM | 110%
Cc1sc2nc(COc3ccc(F)cc3)cc(=O)n2c1C(C)(C)O [Example 2.4, 7-(4-Fluorophenoxymethyl)-3-(2-hydroxypropan-2-yl)-2-methyl-5H-[1,3]thiazolo[3,2-a]pyrimidin-5-one] |  | 3 µM | 44.6%
Cc1sc2nc(COc3ccc(F)cc3)cc(=O)n2c1C(=O)NC1CC1 [Example 1.15, N-cyclopropyl-7-((4-fluorophenoxy)methyl)-2-methyl-5-oxo-5H-thiazolo[3,2-a]pyrimidine-3-carboxamide] |  |  | 55.1%
CCCCc1c(C)sc2nc(CN(CC)c3ccc(F)cc3)cc(=O)n12 [Example 5.14, 3-butyl-7-((ethyl(4-fluorophenyl)amino)methyl)-2-methyl-5H-thiazolo[3,2-a]pyrimidin-5-one] |  | 7.5 µM | 111%
CCNC(=O)c1c(C)sc2nc(Cn3nc(C(F)(F)F)cc3CC(C)C)cc(=O)n12 [compound 265, N-ethyl-7-[[5-isobutyl-3-(trifluoromethyl)pyrazol-1-yl]methyl]-2-methyl-5-oxo-thiazolo[3,2-a]pyrimidine-3-carboxamide] | 4.84 µM |  | 
Cc1sc2nc(Cc3cccc(C#N)c3)cc(=O)n2c1C1CC1C#N (stereo not shown) [Example 23.1, 3-((3-(2-cyanocyclopropyl)-2-methyl-5-oxo-5H-thiazolo[3,2-a]pyrimidin-7-yl)methyl)benzonitrile] |  | 18.1 µM | 
CSc1c(C(F)(F)F)sc2nc(Cn3nc(C(F)(F)F)cc3Cl)cc(=O)n12 [compound 219, 7-[[5-chloro-3-(trifluoromethyl)pyrazol-1-yl]methyl]-3-methylsulfanyl-2-(trifluoromethyl)thiazolo[3,2-a]pyrimidin-5-one] | 10.5 µM |  | 
CCN(Cc1cc(=O)n2c(C(C)(C)C)c(C)sc2n1)c1ccc(F)cc1 [Example 10.2, 3-tert-butyl-7-[(N-ethyl-4-fluoro-anilino)methyl]-2-methyl-thiazolo[3,2-a]pyrimidin-5-one] |  | 5.3 µM | 110%
O=c1cc(COc2ccc(F)cc2)nc2scc([C@@H]3C[C@H]3CO)n12 (relative stereo) [Example 4.14, 7-((4-fluorophenoxy)methyl)-3-(trans-2-(hydroxymethyl)cyclopropyl)-5H-thiazolo[3,2-a]pyrimidin-5-one] |  | 7.8 µM | 93%
CCNC(=O)c1c(C2CC2)sc2nc(Cc3cccc(C#N)c3)cc(=O)n12 [Example 21.43, 7-(3-cyanobenzyl)-2-cyclopropyl-N-ethyl-5-oxo-5H-thiazolo[3,2-a]pyrimidine-3-carboxamide] |  |  | 53.5%
O=c1cc(Cn2nc(C(F)(F)F)cc2Cl)nc2sc(C(F)(F)F)c(N3CC(F)(F)C3)n12 [compound 231, 7-[[5-chloro-3-(trifluoromethyl)pyrazol-1-yl]methyl]-3-(3,3-difluoroazetidin-1-yl)-2-(trifluoromethyl)thiazolo[3,2-a]pyrimidin-5-one] | 61.3 µM |  | 
CCN(Cc1cc(=O)n2c(C3CC3CO)c(C)sc2n1)c1ccc(Cl)cn1 (stereo not shown) [compound 196, 7-[[(5-chloro-2-pyridyl)-ethyl-amino]methyl]-3-[2-(hydroxymethyl)cyclopropyl]-2-methyl-thiazolo[3,2-a]pyrimidin-5-one] | 0.0642 µM |  | 

SMILES | EC50 (Table 3) | EC50 (Table 2) | Max % (Table 2)
O=c1cc(Cn2nc(C(F)(F)F)cc2Cl)nc2sc(C(F)(F)F)c(OCC(F)(F)F)n12 [compound 243, 7-[[5-chloro-3-(trifluoromethyl)pyrazol-1-yl]methyl]-3-(2,2,2-trifluoroethoxy)-2-(trifluoromethyl)thiazolo[3,2-a]pyrimidin-5-one] | 0.864 µM |  | 
Cc1sc2nc(COc3ccc(F)cc3)cc(=O)n2c1C1CC1C#N (racemic) [Example 4.18, cis-2-[7-(4-Fluorophenoxymethyl)-2-methyl-5-oxo-5H-[1,3]thiazolo[3,2-a]pyrimidin-3-yl]cyclopropane-1-carbonitrile] |  | 5 µM | 102%
CCNC(=O)c1c(OCC)sc2nc(Cn3nc(Cl)cc3C(F)(F)F)cc(=O)n12 [compound 176, 7-[[3-chloro-5-(trifluoromethyl)pyrazol-1-yl]methyl]-2-ethoxy-N-ethyl-5-oxo-thiazolo[3,2-a]pyrimidine-3-carboxamide] | 8.92 µM |  | 
COc1cc(C(F)(F)F)nn1Cc1cc(=O)n2c(C3CC3C#N)c(C)sc2n1 (stereo not shown) [compound 209, 2-[7-[[5-methoxy-3-(trifluoromethyl)pyrazol-1-yl]methyl]-2-methyl-5-oxo-thiazolo[3,2-a]pyrimidin-3-yl]cyclopropanecarbonitrile] | 0.0666 µM |  | 
CCN(Cc1cc(=O)n2c(-c3ccsc3)c(C)sc2n1)c1ccc(F)cc1 [Example 5.47, 7-((ethyl(4-fluorophenyl)amino)methyl)-2-methyl-3-(thiophen-3-yl)-5H-thiazolo[3,2-a]pyrimidin-5-one] |  | 0.976 µM | 151%
CCN(Cc1cc(=O)n2c(-c3ncco3)c(C)sc2n1)c1ccc(F)cc1 [Example 5.37, 7-[(N-ethyl-4-fluoro-anilino)methyl]-2-methyl-3-oxazol-2-yl-thiazolo[3,2-a]pyrimidin-5-one] |  | 0.515 µM | 152%
CCN(Cc1cc(=O)n2c(F)c(C)sc2n1)c1ccc(F)cc1 [Example 11.2, 7-[(N-ethyl-4-fluoro-anilino)methyl]-3-fluoro-2-methyl-thiazolo[3,2-a]pyrimidin-5-one] |  |  | 107%
Cc1sc2nc(COc3ccc(F)cc3)c(F)c(=O)n2c1[C@@H]1C[C@H]1CO (relative stereo) [Example 4.29, 6-fluoro-7-((4-fluorophenoxy)methyl)-3-(trans-2-(hydroxymethyl)cyclopropyl)-2-methyl-5H-thiazolo[3,2-a]pyrimidin-5-one] |  | 17.5 µM | 134%
CCN(Cc1cc(=O)n2c(-c3cncnc3)c(C)sc2n1)c1ccccn1 [Example 5.12, 7-((ethyl(pyridine-2-yl)amino)methyl)-2-methyl-3-(pyrimidin-5-yl)-5H-thiazolo[3,2-a]pyrimidin-5-one] |  |  | 106%
CC(=O)c1c(C(F)(F)F)sc2nc(Cn3nc(Cl)cc3C(F)(F)F)cc(=O)n12 [compound 167, 3-acetyl-7-[[3-chloro-5-(trifluoromethyl)pyrazol-1-yl]methyl]-2-(trifluoromethyl)thiazolo[3,2-a]pyrimidin-5-one] | 5.26 µM |  | 
Cc1sc2nc(COc3ccc(F)cc3)cc(=O)n2c1C(=O)NC(C)C [Example 1.10, 7-(4-Fluorophenoxymethyl)-2-methyl-5-oxo-N-(propan-2-yl)-5H-[1,3]thiazolo[3,2-a] pyrimidine-3-carboxamide] |  |  | 44%
CCNC(=O)c1c(C)sc2nc(Cc3cc(F)ccc3CC)cc(=O)n12 [Example 21.21] |  | 33.6 µM | 134%
CCNC(=O)c1c(C)sc2nc(Cc3cccc(C4(O)CC4)c3F)cc(=O)n12 [compound 33, N-ethyl-7-[[2-fluoro-3-(1-hydroxycyclopropyl)phenyl]methyl]-2-methyl-5-oxo-thiazolo[3,2-a]pyrimidine-3-carboxamide] | 6.43 µM |  | 
Cc1sc2nc(CN(CCF)c3ccc(F)cc3)cc(=O)n2c1[C@@H]1C[C@H]1CO (single isomer, unassigned) [Example 5.43, 7-[[4-fluoro-N-(2-fluoroethyl)anilino]methyl]-3-[trans-2-(hydroxymethyl)cyclopropyl]-2-methyl-thiazolo[3,2-a]pyrimidin-5-one] |  | 0.821 µM | 145%
CNC(=O)c1c(C)sc2nc(Cc3cccc(CF)c3F)cc(=O)n12 [Example 21.68, 7-[[2-fluoro-3-(fluoromethyl)phenyl]methyl]-N,2-dimethyl-5-oxo-thiazolo[3,2-a]pyrimidine-3-carboxamide] |  | 4.2 µM | 111%
CCNC(=O)c1c(C2CC2)sc2nc(COc3ccc(F)cc3)cc(=O)n12 [Example 3.1, 2-cyclopropyl-N-ethyl-7-((4-fluorophenoxy)methyl)-5-oxo-5H-thiazolo[3,2-a]pyrimidine-3-carboxamide] |  | 41 µM | 56.2%
